Here are results for 8 compounds from patent publication US5512305A, “Invitroinhibition of the HIV virus with ionic tungstoniobate compounds” (priority 1990, dated 1996).

In one series the test system is herpes virus. Particulars: JP 64-38,022; cited from earlier work.
For series [1] the following is noted: compound abandoned; cited from earlier work.
In a further series the test system is HIV. Particulars: Chemical and Engineering News, December 1986; cited from earlier work.
The next series relates to HIV-1 (strain LAV-1). In words: Inhibition of virus replication in human PBMC (supernatant reverse transcriptase activity). It counts as cell-based. Particulars: 50% inhibition of RT activity vs untreated controls, six days after infection. How it is done:
(§1) Cells. Human peripheral blood mononuclear cells (PBMC) from healthy HIV-1 seronegative and hepatitis B virus seronegative donors were isolated by Ficoll-Hypaque discontinuous gradient centrifugation at 1,000×g for 30 minutes, washed twice in phosphate-buffered saline (pH 7.2; PBS), and pelleted at 300×g for 10 minutes. Before infection, the cells were stimulated by phytohemagglutinin […] at a concentration of 6 μg/ml for three days in RPMI 1640 medium supplemented with 15% heat-inactivated fetal calf serum, 1.5 mM L-glutamine, penicillin (100 U/ml), streptomycin (100 μg/ml), and 4 mM sodium bicarbonate buffer.
Viruses. HIV-1 (strain LAV-1) was obtained from Dr. P. Feorino (Centers for Disease Control, Atlanta, Ga.). […]
PBMC. […] The mean reverse transcriptase (RT) activity of the inocula was 50,000 decompositions per min/ml corresponding to about 100 TCID50, as determined by Groopman et al. (Groopman et al, AIDS Res. Human Retro. 3, 71-85, 1987. The drugs at twice their final concentration in 5 ml of RPMI 1640 medium, supplemented as described above, were added to the cultures. Uninfected and untreated PBMC at equivalent cell densities were grown in parallel as controls. The cultures were maintained in a humidified 5% CO2 -95% air incubator at 37° C. for six days after infection, at which point all cultures were sampled for supernatant reverse transcriptase (RT) activity. […]
The RT assay was performed in 96-well microtiter plates, as described by Spira et al. (Spira et al, J. Clin. Microbiol. 22, 97-99, 1987). […] Four ml of scintillation fluid (Econofluor, NEN Research Products, Boston, Mass.) were added and the amount of radioactivity in each sample was determined using a Packard Tri-Carb liquid scintillation analyzer (model 2,000CA). […]

A further series concerns HSV-1. The series is described as follows: Plaque reduction assay for herpes simplex in Vero cells. It counts as cell-based. The source says: Cell culture assays for herpes simplex.
Viruses. (HSV-1) Mycoplasma-free Vero cells, obtained from Flow Laboratory (McLean, Va.), were used for plaque assays.
On the technique in general: Plaques are areas of infected cells; plaque reduction assays count them against a control.

For the next series, the system named is Vero cells. The series is described as follows: Cytotoxicity assay in Vero cells. The class given is cell-based.
Another series concerns human PBMC. In words: Cytotoxicity assay in uninfected PHA stimulated human PBMC (trypan blue dye-exclusion). It counts as cell-based. As to conditions: 6 days, cell viability. As to the method: as §1
Cytotoxicity assay. The drugs were evaluated for their potential toxic affects on uninfected PHA stimulated human PBMC. Flasks were seeded so that the final cell concentration was 2×10^5 cells/mi. The cells were cultured with and without drug for 6 days, at which time aliquots were counted for cell viability, as assessed by the trypan blue dye-exclusion method using a hemacytometer. The median inhibitory concentration (IC50) was calculated using the median effect method (Chou et al, Elsevier-Biosoft, Elsevier Science Publishers, Cambridge, U.K., 1985; Chou et al, Adv. Enz. Regul. 22, 27-55, 1984). The results are reported as IC50 PBMC below.

The test system of a further series is cells. As to conditions: background statement; cited from earlier work.
Series [2] in a line: Storage stability / shelf-life. The class given is physicochemical.

For K7 PW10 Ti2 O40, the “activity against herpes virus” value in the series on herpes virus was “activity against herpes virus”.

For silicotungstate acid [H4 SiW12 O40], in series [1], the “toxicity in higher animals” value is “toxicity in higher animals”. For the same compound, the “activity against HIV” value in the series on HIV is reported as “has activity against HIV”.

Consider Me3 NH!8 Si2 W18 Nb6 O77 !, for which the EC50 is 0.081 µM in the series on HIV-1 (strain LAV-1) and more than 1 µM in the series with HSV-1. The IC50 in the series with Vero cells and in the series with human PBMC was more than 100 µM in each case.

In the case of “(Me4 N/Na/K)5 Nb3 W3 O19 !.nH2 O [Me4 N/Na/K!5 Nb3 W3 O19 !]”, the figures for the EC50 in the series on HIV-1 (strain LAV-1) and with HSV-1 were 8.56 µM and 5.66 µM, respectively. In addition, the IC50 in the series with Vero cells and with human PBMC was more than 100 µM throughout.

Regarding `Cc1cn([C@H]2C[C@H](N=[N+]=[N-])[C@@H](CO)O2)c(=O)[nH]c1=O` [AZT], in the series with cells, the toxicity to cells result is given as “high toxicity to cells”.

For (Me4 N)9 P2 Nb3 W15 O62 !.15H2 O.CH3 CN, the stability on storage result in series [2] is listed as “stable on storage”.

As for “(Na/K)6 Nb4 W2 O19 !.nH2 O [Na/K!6 Nb4 W2 O19 !]”, the EC50 with HIV-1 (strain LAV-1) is 0.073 µM; in the series with HSV-1, more than 100 µM. Moreover, the IC50 with Vero cells and with human PBMC was more than 100 µM in each case.

Consider K5 BW12 O40, for which, in the series on herpes virus, the “activity against herpes virus” value is listed as “activity against herpes virus”.

For orientation: EC50 means the concentration needed to bring the measured effect to its halfway point. Lower therefore signals greater potency. The term IC50 denotes the concentration at which inhibition is half-maximal. A lower IC50 goes with greater potency.
